Converted amounts (≈) assume the structure as drawn.
Columns and labels:
Experiment in all cases: ≥ marks a high value that may be exact or a test limit, other limits are often not marked, values filed in µg/mL are converted to µM
[1] = tested on: Salmonella enterica serovar Typhimurium
[2] = tested on: Pseudomonas aeruginosa 253
Candida albicans = tested on: Candida albicans
[3] = tested on: Pseudomonas aeruginosa PAO1
[4] = tested on: Staphylococcus aureus ATCC 25923
[5] = tested on: Pseudomonas aeruginosa 910
[6] = tested on: Pseudomonas aeruginosa 919
[7] = tested on: Pseudomonas aeruginosa H103
[8] = tested on: Staphylococcus epidermidis
Escherichia coli UB1005 = tested on: Escherichia coli UB1005
[9] = tested on: Escherichia coli ATCC 25922
[10] = tested on: Bacillus subtilis CCT 2471
[11] = tested on: Pseudomonas aeruginosa ATCC 15442
[12] = tested on: Staphylococcus aureus ATCC 6538
[13] = tested on: Escherichia coli CCT 1371
[14] = tested on: Staphylococcus saprophyticus
[15] = tested on: Enterococcus faecium E007
[16] = tested on: Pseudomonas aeruginosa PA14
[17] = tested on: Acinetobacter baumannii ATCC 7978
[18] = tested on: Staphylococcus aureus ATCC 29231
[19] = tested on: Candida albicans ATCC 10231

CC[C@H](C)[C@H](NC(=O)[C@H](CCCN=C(N)N)NC(=O)[C@H](Cc1c[nH]c2ccccc12)NC(=O)[C@H](CCCN=C(N)N)NC(=O)[C@@H](N)C(C)C)C(=O)N[C@@H](CCCN=C(N)N)C(=O)N[C@H](C(=O)N[C@@H](C)C(=O)N[C@H](C(=O)N[C@H](C(=O)N[C@@H](CCCN=C(N)N)C(=O)N[C@@H](C)C(=O)O)[C@@H](C)CC)C(C)C)C(C)C [VRWRIRVAVIRA]
MIC [1]: 4.01 µM (≈ 6 µg/mL)
MIC [2]: 16 µM (≈ 23.9 µg/mL)
MIC (Candida albicans): 8.03 µM (≈ 12 µg/mL)
MIC [3]: 8 µM (≈ 12 µg/mL)
MIC [4]: 8.03 µM (≈ 12 µg/mL)
MIC [5]: 16 µM (≈ 23.9 µg/mL)
MIC [6]: 8 µM (≈ 12 µg/mL)
MIC [7]: 4.01 µM (≈ 6 µg/mL)
MIC [8]: 1.07 µM (≈ 1.6 µg/mL)
MIC (Escherichia coli UB1005): 1.07 µM (≈ 1.6 µg/mL)

CC[C@H](C)[C@H](NC(=O)CNC(=O)[C@H](CCCCN)NC(=O)[C@H](C)NC(=O)[C@@H](NC(=O)[C@H](CCCCN)NC(=O)[C@@H](N)CC(C)C)[C@@H](C)CC)C(=O)N[C@H](C(=O)N[C@@H](CCCCN)C(=O)N[C@@H](CO)C(=O)N[C@@H](CC(C)C)C(=O)O)[C@@H](C)CC [LKIAKGIIKSL]
MIC [9]: > 84.5 µM
MIC (Candida albicans): > 84.5 µM
MIC [10]: ≥ 84.5 µM
MIC [11]: ≥ 84.5 µM
MIC [4]: > 84.5 µM
MIC [12]: > 84.5 µM
MIC [13]: ≥ 84.5 µM
MIC [8]: ≥ 84.5 µM
MIC [14]: ≥ 84.5 µM

CC[C@H](C)[C@H](NC(=O)[C@H](CCCCN)NC(=O)[C@H](CCCCN)NC(=O)[C@@H](N)CC(C)C)C(=O)NCC(=O)N[C@@H](CCCCN)C(=O)N[C@@H](CCCCN)C(=O)N[C@H](C(=O)N[C@@H](Cc1c[nH]c2ccccc12)C(=O)N[C@@H](CCCN=C(N)N)C(=O)N[C@H](C(=O)NCC(=O)O)C(C)C)[C@@H](C)CC [LKKIGKKIWRVG]
MIC [15]: ≥ 89.8 µM
MIC [16]: ≥ 89.8 µM
MIC [17]: ≥ 89.8 µM
MIC [18]: ≥ 89.8 µM

CC[C@H](C)[C@H](NC(=O)[C@H](CCCCN)NC(=O)[C@H](CCCCN)NC(=O)[C@H](Cc1c[nH]c2ccccc12)NC(=O)[C@@H](NC(=O)[C@H](CCCCN)NC(=O)[C@H](Cc1c[nH]c2ccccc12)NC(=O)[C@@H](N)CC(C)C)[C@@H](C)CC)C(=O)N[C@@H](Cc1c[nH]c2ccccc12)C(=O)N[C@@H](CCCN=C(N)N)C(=O)N[C@H](C(=O)N[C@@H](Cc1c[nH]c2ccccc12)C(=O)N[C@@H](Cc1c[nH]c2ccccc12)C(=O)N[C@@H](CC(N)=O)C(=O)N[C@@H](Cc1c[nH]c2ccccc12)C(=O)N[C@@H](CCCN=C(N)N)C(=O)O)C(C)C [LWKIWKKIWRVWWNWR]
MIC [19]: 53.7 µM (≈ 128 µg/mL)
MIC [15]: ≥ 53.7 µM
MIC [16]: 26.8 µM (≈ 64 µg/mL)
MIC [18]: 13.1 µM (≈ 31.3 µg/mL)
